Experimental data reported in patent US20060135587A1, “Method and compounds for promoting healing and reducing inflammation” (priority 2002, published 2006).
Marks after values point to notes of the source that are not given here.

Experiments:
[1] = test system: aseptic full-thickness skin wounds; test: Healing of aseptic full-thickness skin wounds in rats, topical treatment; format: in vivo
From the text: To heal successfully, wounds should be treated with regard to specific features of the various stages of healing process of the wound (Kuzin et al, 1981). The wound-healing effect of salts of N-substituted 1,3-dialkyl-4,5-bis(carbamoyl)imidazolium derivatives was studied in a model of aseptic full-thickness skin wounds in rats (Zapadnyuk et al, 1983). The effect of 10% 1-ethyl-3-methyl-4,5-bis(N-methylcarbamoyl)imidazolium benzensulfonate in a lanolin ointment base was compared to that of Solcoseryl gel and Spasatel balm.
Aseptic full-thickness skin wounds were created in rats under light ether anaesthesia. At a site on the animal's back where the animal could not lick the wound, the skin was shaved, and a circular piece of skin approximately 2.5 cm^2 area was excised with scissors. Following recovery from anaesthesia the animals were kept in separate cages, with normal food and water ad libitum. A total of 100 rats weighing from 200 to 250 g were used, with 20 rats in each group. The groups were as follows:
Treatment was performed 24 hours after the wounding by applying […] once a day in a proportion of 80 mg of ointment per 1 cm^2 of the wound area (8 mg of substance per 1 cm^2) and then daily until healing was complete.
Animals were examined at 5, 10, 15 and 20 days for the following parameters; wound size and wound healing time; weight gain, peripheral blood indicators (total leucocyte count, differential leucocyte count, and erythrocyte sedimentation rate); and biochemical serum indicators (total protein, albumin, globulin, and globulin fractions); and macroscopic and microscopic assessment of wounds. The average complete wound healing period was 16.8±1.9 days for Compound 2, compared to 23.5±2.2 days for Spasatel and 24.0±2.4 days for Solcoseryl.
For measurement of wound size, a sterile object plate was laid over the wound, and its contour was outlined with a marker. The wounds were photographed, the wound outlines were scanned, and their area was calculated using an in-house computer program.

[2] = test system: lesions of the gastric mucosa; test: Gastric lesions induced by electrostimulation of immobilised rats; format: in vivo
Protocol: (§1) The models used gastric ulcers induced by
a) Electrostimulation of immobilised rats for 3 hours;
(§2) The compounds were administered intraperitoneally at a dose of 20 mg/kg; in the cryogenic ulcer model compound 2 was administered either intraperitoneally (10 mg/kg) or orally (20 mg/kg twice daily, ie. a total of 40 mg/kg/day) and was compared to orally-administered gastrocepin (1 mg/kg twice daily, ie. a total of 2 mg/kg/day).

[3] = test system: lesions of the gastric mucosa; test: Gastric lesions induced by immobilization and hypothermia; format: in vivo, rats; set-up: % reduction of degree of ulceration / % reduction of ulcerated area: concentration or dose not given beside the values; conditions: Protective effect, 30 minutes before the test
Protocol: as §1
b) Immobilization and hypothermia (induced by water cooling);
as §2

[4] = test system: cryogenic ulcer of the gastric mucosa; test: Cryogenic gastric ulcer in rats; format: in vivo; conditions: for reduction of the size of lesions in the gastric mucosa: day 14
Protocol: as §1
c) Ulcer created by local wounding with a cryogenic probe using a method similar to that described above for mouth ulcers.
as §2

[5] = test system: cryogenic injuries of the sigmoid colon; test: Cryogenic damage of the colon, model of ulcerative colitis; format: in vivo, rats; conditions: day 7
Protocol: A model of cryogenic damage of the colon was used in this experiment to simulate ulcerative colitis. Cryogenic injuries of the sigmoid colon of rats were induced by pressing a metal rod of […] in diameter cooled in liquid nitrogen to the serous membrane of the colon for 10 seconds under ether anaesthesia.
Tests were performed on 67 male rats weighing 180-200 g, with 8 animals in each group. Animals were kept in separate cages, with normal food and water ad libitum. The test compounds were administered orally on the second day after the operation, and then daily until healing was complete. Compound 2 or Compound 6 was administered to test animals at a dose of 20-50 mg/kg. The following agents were used for comparison:
The nature of the healing of the ulcer injury was examined morphologically on days 1, 3 and 7. […] The inflammatory process extends beyond the injured area into the adjacent areas, and beyond the peritoneum into fatty connective tissue.

[6] = test system: neurogenic dystrophy of the myocardium; test: Myocardial infarction model (electrostimulation of aortic arch), creatine phosphate in rat myocardium; format: in vivo, rats
From the text: The effect of Compound 2 on myocardial tissue in an experimental model of myocardial infarction was examined. In this model system neurogenic dystrophy of the myocardium was induced in rats or rabbits by electrical stimulation of the reflexogenic zone of the aortic arch by implanted electrodes for a period of three hours. […] These changes are accompanied by changes in biochemical indicators such as creatine phosphate, cAMP, and calcium ion concentrations, and changes in the activity of redox enzymes such as succinate dehydrogenase, lactate dehydrogenase, and glucose-6-phosphate dehydrogenase. At a later stage organic lesions of the myocardium such as necrotic and fibrosclerotic foci can be observed.
The effect of Compound 2 given intraperitoneally or orally on these indicators was examined in rats and rabbits following electrostimulation as described above. The effects on levels of creatine phosphate in rat myocardial are shown in Table 19, and the effects on adenosine triphosphatase (ATPase), succinate dehydrogenase and glucose-6-phosphate dehydrogenase rabbit myocardium are shown in Table 20. The effects on cAMP and Ca^++ levels in rabbit myocardial tissue are shown in FIG. 5, and effects on creatine kinase in rabbit myocardium and blood and the levels of creatine phosphate in myocardium are shown in FIG. 6.

[7] = test system: rats; test: Acute toxicity (LD50) in rats; format: in vivo
From the text: It is contemplated that in clinical use, treatment using oral tablets will take two to three weeks, with each patient receiving three tablets containing 0.6 g active compound per day.

[8] = test system: mice, rats, dogs; test: Chronic toxicity studies over six months; format: in vivo; conditions: mice and rats 40 mg/kg per day subcutaneously, dogs 10 or 40 mg/kg per day orally
Protocol: No effect on body weight, weight of internal organs, structure or function of internal organs or blood indicators was observed. These studies were performed in mice (40 mg/kg per day, given subcutaneously), in rats (40 mg/kg per day, given subcutaneously) and in dogs (10 mg/kg or 40 mg/kg per day, given orally).

[9] = Healing effect over the course of 3 days
[10] = Protective effect, 30 minutes before the test
[11] = healing effect over the course of 14 days, twice daily, oral

SMILES: CC[n+]1cn(C)c(C(=O)NC)c1C(=O)NC.O=S(=O)([O-])c1ccccc1 [Compound 2, 1-methyl-3-ethyl-4,5-bis(N-methylcarbamoyl)-imidazolium benzenesulfonate]
- Wound area (% of area before treatment) ([1]; 5th day, topical, test compound as 10% ointment): 84.0%
- wound area on the fifteenth day ([1]; 10% Compound 2 ointment): 0.4%
- Wound area (% of area before treatment) ([1]; 10th day, topical, test compound as 10% ointment): 8.1%
- Wound area (% of area before treatment) ([1]; 15th day, topical, test compound as 10% ointment): 0.4%
- Wound area (% of area before treatment) ([1]; 20th day, topical, test compound as 10% ointment): 0.1%
- Epithelialization (duration in days) ([1]; Table 8, topical once a day, Compound 2 as 10% ointment in lanolin): 16.8 ± 1.9*^.** days
- Epithelialization period ([1]; Table 10, topical, test compound as 10% ointment): 16.8 ± 1.9
- average complete wound healing period ([1]; text b167): 16.8 ± 1.9 days
- % reduction of degree of ulceration [2, 9]: 50%
- Average number of lesions per animal [2, 9]: 1.7 ± 0.2
- % reduction of degree of ulceration [2, 10]: 66%
- % reduction of ulcerated area [2, 10]: 91%
- Area of lesion [2, 10]: 2.8 ± 2.1
- Average number of lesions per animal ([2]; Protective effect, 30 minutes before the test, 20 mg/kg intraperitoneally): 2.4 ± 0.8
- % reduction of degree of ulceration [3]: 64%
- % reduction of ulcerated area [3]: 62%
- Area of lesion [3]: 4.1 ± 0.8
- Average number of lesions per animal ([3]; 20 mg/kg intraperitoneally): 4.1 ± 0.9
- reduction of the size of lesions in the gastric mucosa ([4]; 10 mg/kg intraperitoneally): 53%
- reduction of the size of lesions in the gastric mucosa ([4]; daily dose of 40 mg/kg orally): 51%
- % reduction of degree of ulceration [4, 11]: 62%
- Average number of lesions per animal [4, 11]: 9.4 ± 1.0
- cases with complete synchronous regeneration ([5]; 20 mg/kg orally): 100%
- animals with reduction of the wound area ([5]; 50 mg/kg): 67%
- Level of creatine phosphate (μM/g) in rat myocardium ([6]; Oral 10 mg/kg, 3 days after stimulation): 1.09 ± 0.1 µM/g
- Level of creatine phosphate (μM/g) in rat myocardium ([6]; Oral 10 mg/kg, Before stimulation): 0.80 ± 0.07 µM/g
- Level of creatine phosphate (μM/g) in rat myocardium ([6]; intraperitoneal 10 mg/kg, 3 days after stimulation): 0.95 ± 0.06 µM/g
- Level of creatine phosphate (μM/g) in rat myocardium ([6]; intraperitoneal 10 mg/kg, Before stimulation): 0.92 ± 0.08 µM/g
- Level of creatine phosphate (μM/g) in rat myocardium ([6]; intraperitoneal 20 mg/kg, 3 days after stimulation): 1.07 ± 0.04 µM/g
- Level of creatine phosphate (μM/g) in rat myocardium ([6]; intraperitoneal 20 mg/kg, Before stimulation): 1.04 ± 0.15 µM/g
- LD50 ([7]; given intraperitoneally): 1210 mg/kg
- LD50 ([7]; oral administration): more than 20000 mg/kg
- chronic toxicity findings [8]: had no irritating or allergic action, does not act on the central nervous system, and has no teratogenic, mutagenic or carcinogenic immunosuppressive activity
